Format in all cases: cell-based
Test [1] concerns human naïve B cells. As to the kind of experiment: LDL-R antibody enhancement of lentiviral transduction of B cells in feeder culture, GFP by flow cytometry. Particulars: 48 hour 5 μM Rosuvastatin. (In general: Flow cytometry measures light scatter and fluorescence of single cells or particles in a stream.)
The subject of test [2] is human naïve B cells. As to the kind of experiment: Antibody class switching of naïve B cells after statin treatment, flow cytometry on Day 14. The settings on record: 5 μM Rosuvastatin 48 hours, then culture to Day 14, versus PBS control, FIG. 3. The method, then:
As noted above, statins and other agents should not substantially reduce target cell activity and function. One function of naïve B cells is the ability to engage in antibody class switching. […] Specifically, human naïve B cells were isolated and cultured as described above in Example 1. Cells were plated at a density of 1×10^5 cells B cells per 6 well with 1×10^4 feeder cells plated the previous day. The dual culture was grown in the media and cytokine mix described above with or without 5 μM Rosuvastatin. After 48 hours of treatment, media was changed and cells were allowed to continue growing in the media and fresh cytokines. Every 3-4 days half of the media was removed and replaced with fresh media and cytokines at 1× concentration. Cells were trypsinized and split 1:5 at day 7. Subclass of expressed antibody was assessed by flow cytometry on Day 14.

Test [3] relates to human naïve B cells.

Turning to `CC(C)c1nc(N(C)S(C)(=O)=O)nc(-c2ccc(F)cc2)c1/C=C/[C@@H](O)C[C@@H](O)CC(=O)O` [rosuvastatin], in the test with human naïve B cells [1] (GFP+ virus, feeder culture + 250 ng/ml IL-2, no LDL-R antibody), the “Median Fluorescence Intensity” value came to 9.5. For the same molecule, the “Median Fluorescence Intensity” value with human naïve B cells [1] (GFP+ virus, feeder culture + 250 ng/ml IL-2, with anti-mouse LDL-R antibody 2 μg/mL) was found to be 10. Moreover, the “Median Fluorescence Intensity” value with human naïve B cells [1] (GFP− virus (control virus), feeder culture + 250 ng/ml IL-2, no LDL-R antibody) is on record as 3. Further, in the test with human naïve B cells [2], the “percent of B cells expressing the measured subclasses of antibody (class switching)” value is listed as “did not alter”. In addition, in the test with human naïve B cells [3], the “B cell transduction percentage, some replicates” value is reported as “exceeding 90%”; the “GFP expression compared to B cells not treated with the statin or not transduced” value is given as “substantially higher”; the “average B cell transduction percentage as measured by GFP expression, between technical replicates” value came to 80%; the “transduction relative to B cells not incubated with rosuvastatin” value is “about 100 fold”.

The values above are taken from patent US20250075179A1, “METHODS FOR INCREASING VIRAL TRANSDUCTION OF CELLS” (Trustees of Dartmouth College, priority 2021, published 2025).
